Source: ChEMBL document CHEMBL5576063, “Design, concise synthesis and evaluation of novel amide-based combretastatin A-4 analogues as potent tubulin inhibitors” (Bioorg Med Chem Lett, 2024)
Active and inactive are the calls of the source. The rule behind the calls is not given here.

How the values were obtained:
[1] = system: A549; assay: Antiproliferative activity against human A549 cells assessed as inhibition of cell growth by MTT assay; type: functional, cell-based
[2] = system: HeLa; assay: Antiproliferative activity against human HeLa cells assessed as inhibition of cell growth by MTT assay; type: functional, cell-based
[3] = Antiproliferative activity against HEK293 cells assessed as inhibition of cell growth by MTT assay; type: toxicity, cell-based; settings: human
[4] = system: HCT-116; assay: Antiproliferative activity against human HCT-116 cells assessed as inhibition of cell growth by MTT assay; type: functional, cell-based
[5] = target: T1, Tubulin (Homo sapiens) (UniProt P68371+Q9H4B7+P0DPH7+P68366+Q13509+Q71U36+P04350+Q3ZCM7+P07437+P68363+Q9BQE3+Q6PEY2+Q13885+Q9BVA1+Q9BUF5); assay: Inhibition of tubulin polymerization (unknown origin) at 10 uM measured upto 30 mins by spectrophotometry based analysis relative to control; type: protein-complex assay
[6] = system: HT-29; assay: Antiproliferative activity against human HT-29 cells assessed as inhibition of cell growth by MTT assay; type: functional, cell-based
[7] = system: A549; assay: Induction of cell cycle arrest in human A549 cells assessed as accumulation of cells at S phase at 4.8 uM measured after 24 hrs by PI staining based flow cytometry analysis (reference value: 23.17%); type: functional
[8] = system: A549; assay: Induction of apoptosis in human A549 cells assessed as viable cells at 4.8 uM measured after 24 hrs by annexin-V/PI staining based flow cytometry analysis (reference value: 97.4%); type: functional; settings: read-out: Activity
[9] = system: A549; assay: Induction of apoptosis in human A549 cells assessed as early apoptotic cells at 1.2 uM measured after 24 hrs by annexin-V/PI staining based flow cytometry analysis (reference value: 1.87%); type: functional
[10] = system: A549; assay: Induction of apoptosis in human A549 cells assessed as early apoptotic cells at 4.8 uM measured after 24 hrs by annexin-V/PI staining based flow cytometry analysis (reference value: 1.87%); type: functional
[11] = system: A549; assay: Induction of cell cycle arrest in human A549 cells assessed as accumulation of cells at G2/M phase at 1.2 uM measured after 24 hrs by PI staining based flow cytometry analysis (reference value: 21.00%); type: functional
[12] = system: A549; assay: Induction of apoptosis in human A549 cells assessed as early apoptotic cells at 2.4 uM measured after 24 hrs by annexin-V/PI staining based flow cytometry analysis (reference value: 1.87%); type: functional
[13] = system: A549; assay: Induction of cell cycle arrest in human A549 cells assessed as accumulation of cells at S phase at 2.4 uM measured after 24 hrs by PI staining based flow cytometry analysis (reference value: 23.17%); type: functional
[14] = system: A549; assay: Induction of cell cycle arrest in human A549 cells assessed as accumulation of cells at G0/G1 phase at 4.8 uM measured after 24 hrs by PI staining based flow cytometry analysis (reference value: 55.88%); type: functional
[15] = system: A549; assay: Induction of apoptosis in human A549 cells assessed as necrotic cells at 4.8 uM measured after 24 hrs by annexin-V/PI staining based flow cytometry analysis (reference value: 0.48%); type: functional
[16] = system: A549; assay: Induction of apoptosis in human A549 cells assessed as late apoptotic cells at 2.4 uM measured after 24 hrs by annexin-V/PI staining based flow cytometry analysis (reference value: 0.25%); type: functional
[17] = system: A549; assay: Induction of cell cycle arrest in human A549 cells assessed as accumulation of cells at G2/M phase measured after 24 hrs by PI staining based flow cytometry analysis; type: functional; settings: dose 1.2-4.8 µM
[18] = system: A549; assay: Induction of apoptosis in human A549 cells assessed as necrotic cells at 2.4 uM measured after 24 hrs by annexin-V/PI staining based flow cytometry analysis (reference value: 0.48%); type: functional
[19] = system: A549; assay: Induction of apoptosis in human A549 cells assessed measured after 24 hrs by annexin-V/PI staining based flow cytometry analysis; type: functional, cell-based; settings: dose 1.2-4.8 µM
[20] = target: T1, Tubulin (Homo sapiens); assay: Inhibition of tubulin polymerization (unknown origin) at 6 uM measured upto 30 mins by spectrophotometry analysis; type: protein-complex assay
[21] = system: A549; assay: Induction of apoptosis in human A549 cells assessed as late apoptotic cells at 4.8 uM measured after 24 hrs by annexin-V/PI staining based flow cytometry analysis (reference value: 0.25%); type: functional
[22] = system: A549; assay: Induction of apoptosis in human A549 cells assessed as viable cells at 2.4 uM measured after 24 hrs by annexin-V/PI staining based flow cytometry analysis (reference value: 97.4%); type: functional; settings: read-out: Activity
[23] = system: A549; assay: Induction of apoptosis in human A549 cells assessed as late apoptotic cells at 1.2 uM measured after 24 hrs by annexin-V/PI staining based flow cytometry analysis (reference value: 0.25%); type: functional
[24] = system: A549; assay: Induction of cell cycle arrest in human A549 cells assessed as accumulation of cells at G2/M phase at 2.4 uM measured after 24 hrs by PI staining based flow cytometry analysis (reference value: 21.00%); type: functional
[25] = system: A549; assay: Induction of cell cycle arrest in human A549 cells assessed as accumulation of cells at G2/M phase at 4.8 uM measured after 24 hrs by PI staining based flow cytometry analysis (reference value: 21.00%); type: functional
[26] = system: A549; assay: Induction of cell cycle arrest in human A549 cells assessed as accumulation of cells at G0/G1 phase at 2.4 uM measured after 24 hrs by PI staining based flow cytometry analysis (reference value: 55.88%); type: functional
[27] = system: A549; assay: Induction of cell cycle arrest in human A549 cells assessed as accumulation of cells at G0/G1 phase at 1.2 uM measured after 24 hrs by PI staining based flow cytometry analysis (reference value: 55.88%); type: functional
[28] = system: A549; assay: Induction of apoptosis in human A549 cells assessed as viable cells at 1.2 uM measured after 24 hrs by annexin-V/PI staining based flow cytometry analysis (reference value: 97.4%); type: functional; settings: read-out: Activity
[29] = target: Tubulin; assay: Inhibition of tubulin polymerization (unknown origin) measured upto 30 mins by spectrophotometry based analysis; type: protein-complex assay, Homo sapiens
[30] = system: A549; assay: Induction of cell cycle arrest in human A549 cells assessed as accumulation of cells at S phase at 1.2 uM measured after 24 hrs by PI staining based flow cytometry analysis (reference value: 23.17%); type: functional
[31] = system: A549; assay: Induction of apoptosis in human A549 cells assessed as necrotic cells at 1.2 uM measured after 24 hrs by annexin-V/PI staining based flow cytometry analysis (reference value: 0.48%); type: functional
[32] = target: T1, Tubulin (Homo sapiens); assay: Inhibition of tubulin polymerization (unknown origin) at 10 uM measured upto 30 mins by spectrophotometry analysis; type: protein-complex assay

COc1ccc(/C=C(/C(=O)Nc2ccc(N3CCN(C)CC3)cc2)c2cc(OC)c(OC)c(OC)c2)cc1O
IC50 [1]: > 50 µM

COc1ccc(/C=C(/C(=O)NC2CCCC2)c2cc(OC)c(OC)c(OC)c2)cc1OC(C)=O
IC50 [1]: > 50 µM

COc1ccc(/C=C(/C(=O)Nc2ccc(C(C)C)cc2)c2cc(OC)c(OC)c(OC)c2)cc1O
IC50 [1]: 43.4 µM

COc1ccc(/C=C(/C(=O)NC2CCCC2)c2cc(OC)c(OC)c(OC)c2)cc1O
IC50 [1]: > 50 µM

COc1ccc(/C=C(/C(=O)NC2CC2)c2cc(OC)c(OC)c(OC)c2)cc1OC(C)=O
IC50 [1]: > 50 µM

CCc1ccc(NC(=O)/C(=C/c2ccc(OC)c(O)c2)c2cc(OC)c(OC)c(OC)c2)cc1
IC50 [1]: > 50 µM

COc1ccc(/C=C(/C(=O)Nc2cc(OC)c(OC)c(OC)c2)c2cc(OC)c(OC)c(OC)c2)cc1OC(C)=O
IC50 [2]: 9.79 µM | IC50 [3]: > 100 µM | IC50 [4]: 5.49 µM | inhibition [5]: 34% | IC50 [1]: 0.73 µM | IC50 [6]: 4.71 µM

COc1ccc(/C=C(/C(=O)Nc2ccc(C)cc2)c2cc(OC)c(OC)c(OC)c2)cc1OC(C)=O
IC50 [1]: 3.99 µM

COc1ccc(/C=C(/C(=O)NCc2ccccc2)c2cc(OC)c(OC)c(OC)c2)cc1O
IC50 [1]: > 50 µM

CCc1ccc(NC(=O)/C(=C/c2ccc(OC)c(OC(C)=O)c2)c2cc(OC)c(OC)c(OC)c2)cc1
IC50 [1]: 3.53 µM

COc1ccc(NC(=O)/C(=C/c2ccc(OC)c(OC(C)=O)c2)c2cc(OC)c(OC)c(OC)c2)cc1
IC50 [1]: 3.01 µM

COc1ccc(NC(=O)/C(=C/c2ccc(OC)c(O)c2)c2cc(OC)c(OC)c(OC)c2)cc1
IC50 [1]: > 50 µM

COc1ccc(/C=C(/C(=O)NC2CC2)c2cc(OC)c(OC)c(OC)c2)cc1O
IC50 [1]: > 50 µM

COc1ccc(/C=C(/C(=O)Nc2cc(OC)c(OC)c(OC)c2)c2cc(OC)c(OC)c(OC)c2)cc1O
IC50 [1]: > 50 µM

COc1ccc(/C=C(/C(=O)Nc2ccc(Cl)cc2)c2cc(OC)c(OC)c(OC)c2)cc1O
IC50 [1]: > 50 µM

COc1ccc(/C=C(/C(=O)Nc2ccccc2)c2cc(OC)c(OC)c(OC)c2)cc1OC(C)=O
IC50 [1]: 3.91 µM

COc1ccc(/C=C(/C(=O)Nc2ccc(C)cc2)c2cc(OC)c(OC)c(OC)c2)cc1O
IC50 [1]: 24.5 µM

COc1ccc(/C=C(/C(=O)Nc2ccc(N3CCN(C)CC3)cc2)c2cc(OC)c(OC)c(OC)c2)cc1OC(C)=O
IC50 [1]: > 50 µM

COc1ccc(/C=C(/C(=O)Nc2ccc(C(C)C)cc2)c2cc(OC)c(OC)c(OC)c2)cc1OC(C)=O
IC50 [2]: 23.4 µM | IC50 [3]: > 100 µM | IC50 [4]: 28.6 µM | inhibition [5]: 3% | IC50 [1]: 1.08 µM | IC50 [6]: 18.1 µM

COc1ccc(/C=C(/C(=O)Nc2ccccc2)c2cc(OC)c(OC)c(OC)c2)cc1O
Activity [7]: 13.9% | viability at 4.8 µM [8]: 86.9% | Activity [9]: 1.98% | Activity [10]: 4.97% | Activity [11]: 28.81% | Activity [12]: 1.87% | IC50 [2]: 10.3 µM | Activity [13]: 32.71% | Activity [14]: 53.73% | Activity [15]: 2.96% | Activity [16]: 3.33% | IC50 [3]: > 100 µM | Activity [17]: Dose-Dependent Effect | Activity [18]: 1.65% | Activity [19]: Dose-Dependent Effect | inhibition [20]: Active | IC50 [4]: 6.28 µM | Activity [21]: 5.15% | viability at 2.4 µM [22]: 93.1% | Activity [23]: 1.35% | inhibition [5]: 62% | Activity [24]: 46.63% | IC50 [1]: 2.42 µM | Activity [25]: 32.36% | Activity [26]: 40.69% | Activity [27]: 53.47% | IC50 [6]: 5.33 µM | viability at 1.2 µM [28]: 96.4% | IC50 [29]: 6.9 µM | Activity [30]: 22.72% | Activity [31]: 0.27%

CCN1CCN(c2ccc(NC(=O)/C(=C/c3ccc(OC)c(O)c3)c3cc(OC)c(OC)c(OC)c3)cc2)CC1
IC50 [1]: 45.7 µM

COc1ccc(/C=C(/C(=O)NCc2ccccc2)c2cc(OC)c(OC)c(OC)c2)cc1OC(C)=O
IC50 [1]: 33.8 µM

COc1ccc(/C=C\c2cc(OC)c(OC)c(OC)c2)cc1O [COMBRETASTATIN A4]
IC50 [2]: 0.08 µM | IC50 [3]: 48.1 µM | IC50 [4]: 4.77 µM | IC50 [1]: 0.11 µM | IC50 [6]: 1.65 µM

CCN1CCN(c2ccc(NC(=O)/C(=C/c3ccc(OC)c(OC(C)=O)c3)c3cc(OC)c(OC)c(OC)c3)cc2)CC1
IC50 [1]: 4.85 µM

CC(=O)O[C@H]1C(=O)[C@@]2(C)[C@H]([C@H](OC(=O)c3ccccc3)[C@]3(O)C[C@H](OC(=O)[C@H](O)[C@@H](NC(=O)c4ccccc4)c4ccccc4)C(C)=C1C3(C)C)[C@]1(OC(C)=O)CO[C@@H]1C[C@@H]2O
inhibition [32]: inactive

COc1ccc(/C=C(/C(=O)Nc2ccc(Cl)cc2)c2cc(OC)c(OC)c(OC)c2)cc1OC(C)=O
IC50 [2]: 17.3 µM | IC50 [3]: > 100 µM | IC50 [4]: 20.5 µM | inhibition [5]: 3% | IC50 [1]: 2.64 µM | IC50 [6]: 30.2 µM
